The record followed here is patent US9181172B2, “Rhein conjugates, preparation method thereof and their uses in producing medicines for treating diabetic nephrosis, intestinal adhesion and osteoarthritis” (priority 2005, dated 2015).

Data set [1] concerns mice. Briefly: Intestinal propulsion in mice. The class given is in vivo. Particulars: dosage 9 mg/kg, intravenous injection. Here is the method: Fifty mice, male, weighting from 18 to 22 g, were randomly divided into five groups, namely, model control group, domperidone group, rhein sodium group, rhein glucosamine large dose group and low dose group.
Each group has 10 mice respectively. The mice were fasted, but water was not prohibited, and then administered with medicines by intravenous injection. After that, tests were carried on immediately according to the methods in the literature[Xu Shuyun, Methodology in Pharmacological Experiment (the 3rd version): 1313]. The intestinal propulsive rates were calculated, and t test was used for the intergroup comparison.

Data set [2] can be described thus: Comparison of metal salts or conjugates hydro-acupuncture (water-carrier) preparation: pH value and clarity. The class given is physicochemical. Particulars: 2.0 mg/ml in water, as dissolved. Here is the method:
Proper amount of different rhein or rhein-containing effective part metal salts or conjugates were put into a 10 ml volumetric flask, added with water, shaken and dissolved for constant volume, and then a water-carrier preparation was obtained. Rhein or rhein-containing effective part sodium salts or sylvan preparation are adjusted to the original pH with diluted hydrochloric acid and the results were shown in Table 4.

The next data set deals with diabetic rats. Put plainly: Diabetic nephrosis of obese diabetic rats (high-fat high-sugar diet plus STZ). The class given is in vivo. Particulars: for Urine protein / Kidney weight index (double kidney weight/body weight × 10^4) / Serum total cholesterol / Serum triacylglycerol / Steady blood sugar level / Steady insulin level / Weight / blood sugar: six months, ig 90 mg/kg. The procedure:
Animal model of diabetic rats: after one month of high-fat high-sugar diet, the rats (about 180 g) were injected by sub-pathogenic dose (25 mg/kg) of streptozotocin (STZ) to induce the occurrence of diabetes. The model has the characteristics of moderate hyperglycemia, hyperlipidemia and insulin resistance as well as pathological changes of typical diabetic nephrosis.
• 1. Conventional feedstuff control group: distilled water. • 2. Diabetes model group: distilled water. • 3. Rhein lysine diabetes treatment group: a month after STZ injection, rhein lysine complex [prepared with distilled water, intragastric infusion for rats according to 90 mg/kg (0.209 mmol/kg) dose] was administered referred to treatment group 1. • 4. Rhein sodium diabetes treatment group: a month after STZ injection, rhein sodium [prepared with distilled water, intragastric infusion for rats, according to 65 mg/kg (0.212 mmol/kg) dose] was administered, referred to treatment group 2. • 5. Rhein lysine diabetes prevention group: one week after STZ injection, rhein lysine conjugates were administered [prepared with distilled water and intragastric infusion for rats, according to 90 mg/kg (0.209 mmol/kg) dose], referred to prevention group 1. • 6. Rhein sodium diabetes prevention group: one week after STZ injection, rhein sodium were administered [prepared with distilled water and intragastric infusion for rats, according to 65 mg/kg (0.212 mmol/kg ) dose], referred to prevention group 2.

In the next data set the test system is obese hyperglycemia mice. Put plainly: Body weight and blood glucose of obese hyperglycemia mice. It counts as in vivo. The procedure:
9-week-old obese mice of hyperglycemia were randomly divided into: rhein sodium group, non-treatment group, rosiglitazone group, rhein lysine high-dose group and low-dose group, each group has 6 mice. Kunming mice of the same age were used as the control group, which were fed by conventional feedstuff with free food and water feeding. Rhein lysine conjugates [the dose is 180 mg/kg (0.418 mmol/kg) and 90 mg/kg (0.209 mmol/kg) for intragastric infusion, prepared with distilled water], dose of the rhein sodium group is 130 mg/kg (0.424 mmol/kg), the mixture was dissolved with distilled water, intragastric administration; rosiglitazone group (the dose is 4 mg/kg), the mixture was dissolved with distilled water, intragastric administration, and the rats of the other two groups were administered with the same volume of distilled water, once a day, 12 weeks of administration in succession. The animals' body weight and blood sugar were measured regularly, and statistical analysis was conducted.

The subject of data set [3] is obese rats of high-fat and high-sugar diet. Briefly: Body weight of obese rats of high-fat and high-sugar diet. It counts as in vivo. An excerpt: Group A: conventional diet, 4 weeks later, started to carry on intragastric administration, and the same volume of distilled water as the control, once daily, three weeks in succession.
Group B: high-fat high-sugar diet, 4 weeks later, started to carry on intragastric administration, and the same volume of distilled water as the model control, once daily, three weeks in succession.
Group C: high-fat high-sugar diet, 4 weeks later, started to carry on intragastric administration of rhein lysine conjugates [dose: 90 mg/kg (0.209 mmol/kg), prepared by distilled water], once daily, three weeks in succession.
Group D: high-fat high-sugar diet, 4 weeks later, started to carry on intragastric administration of rhein lysine conjugates [dose: 45 mg/kg (0.105 mmol/kg), prepared by distilled water], once daily, three weeks in succession.
Group E: high-fat high-sugar diet, 4 weeks later, started to carry on intragastric administration of rhein sodium [dose: 65 mg/kg (0.212 mmol/kg), prepared by distilled water], once daily, three weeks in succession.

The next data set relates to rats. Briefly: Intestinal adhesion in rats. The class given is in vivo. As to conditions: 10 mg/kg once every two days, 7th day. The procedure: Rats were fasted for 12 h and models were built according to the methods in the literature [Xu Shuyun, Methodology in Pharmacological Experiment (the 3rd version): 1335]. The rats were randomly divided into five groups, namely, model control group, dexamethasone group, rhein sodium group, rhein glucosamine large dose group and low dose group. Each group included 12 rats. […] The rats of the model group were administered with the same volume of NS, while the rats of the positive control group were administered with dexamethasone, administered once every two days, dose: 10 mg/kg. The administration volume was the same as the treatment group. The rats were killed on the 7th day and carried on laparotomy. Adhesion degree was classified and scored respectively. The classification and score of the observed index-adhesion degree can refer to the five-grade classification method prepared by Nair, and determine the classification standard, see Schedule 13. Intestinal adhesion classification adopts Ridit analysis. The test results are as follows (Table 14): […]

Data set [4] has as its system mice. Briefly: Immune function in mice (clearance index, phagocytic index). It counts as in vivo. Particulars: ig 20 mg/kg, 3 days. The procedure:
Fifty Kunming mice, half male and half female, weighing 18-22 g each were selected and randomly divided into five groups, namely, model control group, cyclophosphamide group, rhein sodium group, rhein glucosamine large dose group and small dose group, 10 mice for each group. The mice were administered with medicines by intragastric administration, 0.2 ml/10 g body weight, once every day and administered for 3 days in succession. After the mice were administered with medicines, 30 minutes later, test was carried on according to the method in the literature [Xu Shuyun, Methodology in Pharmacological Experiment (the 3rd version): 934]. The […] and corrected phagocytic index α were calculated, and t-test was conducted for statistical analysis.

Setting [5] is: prevention group and treatment group, six months after administration.
[6] abbreviates: baseline of high-dose group, ig 180 mg/kg once a day.
Where [7] appears, read: baseline of low-dose group, ig 90 mg/kg once a day.
Where [8] appears, read: baseline of group given ig 4 mg/kg once a day.

For `O=c1[nH]c2ccccc2n1CCCN1CCC(n2c(=O)[nH]c3cc(Cl)ccc32)CC1` [domperidone], in the data set with mice [1], the Propulsive rate worked out at 55.42 ± 9.6 %.

For the compound `CNC[C@H](O)[C@@H](O)[C@H](O)[C@H](O)CO.O=C(O)c1cc(O)c2c(c1)C(=O)c1cccc(O)c1C2=O` [rhein meglumine conjugate, Rhein Meglumine Conjugate], in data set [2], the PH value is 6-7 and the clarity entry is recorded as “clear”.

Take `NCCCCC(N)C(=O)O.O=C(O)c1cc(O)c2c(c1)C(=O)c1cccc(O)c1C2=O` [Rhein lysine conjugate, Rhein Lysine Conjugate]: in the data set with diabetic rats (setting [5]), the “kidney weight and kidney weight index compared with the model group” value is “significantly lower”; the “serum cholesterol and triglyceride compared with the model group” value is “significantly lower”; the “urine protein content compared with the model group” value was “significantly lower”. Further, the “blood sugar level compared with the model group” value with diabetic rats (prevention group, six months after administration) is recorded as “significantly lower”. Further, the Urine protein with diabetic rats (preventive administration from one week after STZ) amounted to 10.23 ± 3.34 mg/24 h. Moreover, in the data set on diabetic rats (preventive administration), the “Kidney weight index (double kidney weight/body weight × 10^4)” value is listed as 5.26 ± 0.74, the Serum total cholesterol was 2.78 ± 0.21 mM, the Serum triacylglycerol is 1.56 ± 0.32 and the “Steady blood sugar level” value came to 6.2 ± 0.4 mmol/L. Moreover, in the data set with diabetic rats (preventive administration), the Steady insulin level is listed as 71.6 ± 3.5 uU/ml, the Weight is 248 ± 13 g and the blood sugar amounted to 14.98 ± 5.9 mmol/L. Besides, the Urine protein with diabetic rats (treatment from a month after STZ) is given as 15.12 ± 5.68 mg/24 h. Moreover, in the data set with diabetic rats (treatment group, six months after administration), the “blood sugar level compared with the model group” value is recorded as “no significant difference”. In the data set with diabetic rats (treatment), the “Kidney weight index (double kidney weight/body weight × 10^4)” value was determined as 6.7 ± 0.78, the Serum total cholesterol was found to be 3.56 ± 0.71 mM, the Serum triacylglycerol turned out to be 1.63 ± 0.39 and the “Steady blood sugar level” value is reported as 5.6 ± 0.9 mmol/L. Further, in the data set with diabetic rats (treatment), the Steady insulin level worked out at 80 ± 3.5 uU/ml, the Weight is reported as 228 ± 15 g and the blood sugar is recorded as 17.4 ± 5.6 mmol/L. Further, in the data set on obese hyperglycemia mice (9 weeks after administration), the “weight and blood sugar compared with the non-treatment group” value was “extremely significant difference”. Besides, in the data set with obese hyperglycemia mice (setting [6]), the “Blood glucose prior to administration” value was determined as 29.2 ± 3.6 mmol/L and the “Body weight prior to administration” value stood at 29.2 ± 1.6 g. In the data set with obese hyperglycemia mice (setting [7]), the “Blood glucose prior to administration” value worked out at 28.7 ± 5.3 mmol/L and the “Body weight prior to administration” value is listed as 28.8 ± 1.6 g. Further, in the data set with obese hyperglycemia mice (ig 90 mg/kg once a day), the “Blood glucose 6 w after administration” value was 31.4 ± 4.9 mmol/L, the “Blood glucose 9 w after administration” value is on record as 33.7 ± 5.6 mmol/L, the “Blood glucose 12 w after administration” value is given as 30.4 ± 4.2 mmol/L and the “Body weight 6 w after administration” value amounted to 35.7 ± 1.7 g. In addition, in the data set with obese hyperglycemia mice (ig 90 mg/kg once a day), the “Body weight 9 w after administration” value is 39.3 ± 1.2 g and the “Body weight 12 w after administration” value was determined as 41.3 ± 1.6 g. Besides, in the data set with obese hyperglycemia mice (ig 180 mg/kg once a day), the “Blood glucose 6 w after administration” value amounted to 30.9 ± 4.2 mmol/L, the “Blood glucose 9 w after administration” value came to 30.2 ± 5.3 mmol/L, the “Blood glucose 12 w after administration” value came to 28.1 ± 5.4 mmol/L and the “Body weight 6 w after administration” value amounted to 34.9 ± 1.6 g. In the data set on obese hyperglycemia mice (ig 180 mg/kg once a day), the “Body weight 9 w after administration” value was 38.2 ± 1.3 g and the “Body weight 12 w after administration” value came to 40.1 ± 1.4 g. For the same compound, the “The body weight increased 7 weeks after high-sugar high-fat diet” value in data set [3] (Group C, after three weeks ig 90 mg/kg once daily) was 16.8 ± 4.8 g. Further, the “The body weight increased 4 weeks after high-sugar high-fat diet” value in data set [3] (Group C, before start of ig 90 mg/kg) worked out at 15.3 ± 3.8 g. Further, the “The body weight increased 7 weeks after high-sugar high-fat diet” value in data set [3] (Group D, after three weeks ig 45 mg/kg once daily) is listed as 17.7 ± 4.6 g. In addition, the “The body weight increased 4 weeks after high-sugar high-fat diet” value in data set [3] (Group D, before start of ig 45 mg/kg) is reported as 16.1 ± 4.2 g.

In the case of `CN(CCOc1ccc(CC2SC(=O)NC2=O)cc1)c1ccccn1` (stereo not shown) [Rosiglitazone], in the data set with obese hyperglycemia mice (setting [8]), the “Blood glucose prior to administration” value is on record as 29.3 ± 4.7 mmol/L and the “Body weight prior to administration” value is 29.3 ± 1.7 g. Also, in the data set with obese hyperglycemia mice (ig 4 mg/kg once a day), the “Blood glucose 6 w after administration” value is recorded as 31.1 ± 4.9 mmol/L, the “Blood glucose 9 w after administration” value was 30.5 ± 4.5 mmol/L, the “Blood glucose 12 w after administration” value was 27.9 ± 3.8 mmol/L and the “Body weight 6 w after administration” value amounted to 42.1 ± 1.9 g. Moreover, in the data set on obese hyperglycemia mice (ig 4 mg/kg once a day), the “Body weight 9 w after administration” value is 48.2 ± 1.5 g and the “Body weight 12 w after administration” value was determined as 50.1 ± 1.8 g.

Regarding `C[C@@H]1C[C@H]2[C@@H]3CCC4=CC(=O)C=C[C@]4(C)[C@@]3(F)[C@@H](O)C[C@]2(C)[C@@]1(O)C(=O)CO` [dexamethasone], in the data set on rats (number of 12 rats with completely no adhesion), the “Rating of adhesion degree 0” value is given as 1. Moreover, the “Rating of adhesion degree III” value in the data set on rats (number of 12 rats with more than two adhering zones) was 1. For the same compound, the “Rating of adhesion degree I” value in the data set with rats (number of 12 rats with one adhering zone) came to 2. Besides, the “Rating of adhesion degree IV” value with rats (number of 12 rats with organs adhering to abdominal wall directly) worked out at 0. In addition, the “Rating of adhesion degree II” value with rats (number of 12 rats with two adhering zones) was 8.

As to `O=P1(N(CCCl)CCCl)NCCCO1` (stereo not shown) [cyclophosphamide], in the data set on mice [4], the “Clearance index (k)” value is 0.0192 ± 0.0102 and the “Phagocytic index (α)” value stood at 4.0208 ± 0.6698.

As to `O=C([O-])c1cc(O)c2c(c1)C(=O)c1cccc(O)c1C2=O.[K+]` [Rhein sylvin], in data set [2], the PH value is 9-10 and the clarity entry is on record as “clear”.

For the compound `C[N+](C)(C)CC(O)CC(=O)[O-].O=C(O)c1cc(O)c2c(c1)C(=O)c1cccc(O)c1C2=O` [rhein carnitine conjugate, Rhein Carnitine Conjugate], in data set [2], the PH value is given as 6-7 and the clarity entry was “clear”.
